Values of other authors as cited in patent US20230392217A1 (priority 2020, published 2023).
Where two headings read alike, the source gives them in different places.

Columns and labels:
[1] = tested on: methicillin-sensitive S. aureus (MSSA); details: cited from earlier work
[2] = tested on: methicillin-resistant S. aureus (MRSA); details: cited from earlier work

## COc1cccc(OC)c1C(=O)N[C@@H]1C(=O)N2[C@@H]1SC(C)(C)[C@@H]2C(=O)O [Methicillin, methicillin]
[1]; strain MSSA #1
  antibiotic susceptibility/resistance: Susceptible
[1]; strain MSSA #2
  antibiotic susceptibility/resistance: Susceptible
[1]; strain MSSA #3
  antibiotic susceptibility/resistance: Susceptible
[1]; strain MSSA #4
  antibiotic susceptibility/resistance: Susceptible
[1]; strain MSSA #5
  antibiotic susceptibility/resistance: Susceptible
[1]; strain MSSA #6
  antibiotic susceptibility/resistance: Susceptible
[1]; strain MSSA #7
  antibiotic susceptibility/resistance: Susceptible
[1]; strain MSSA #8
  antibiotic susceptibility/resistance: Susceptible
[1]; strain MSSA #9
  antibiotic susceptibility/resistance: Susceptible
[1]; strain MSSA #10
  antibiotic susceptibility/resistance: Susceptible
[1]; strain MSSA #11
  antibiotic susceptibility/resistance: Susceptible
[1]; strain MSSA #12
  antibiotic susceptibility/resistance: Susceptible
[1]; strain MSSA #13
  antibiotic susceptibility/resistance: Susceptible
[1]; strain MSSA #14
  antibiotic susceptibility/resistance: Susceptible
[1]; strain MSSA #15
  antibiotic susceptibility/resistance: Susceptible
[1]; strain MSSA #16
  antibiotic susceptibility/resistance: Susceptible
[1]; strain MSSA #17
  antibiotic susceptibility/resistance: Susceptible
[1]; strain MSSA #18
  antibiotic susceptibility/resistance: Susceptible
[1]; strain MSSA #19
  antibiotic susceptibility/resistance: Susceptible
[1]; strain MSSA #20
  antibiotic susceptibility/resistance: Susceptible
[2]; strain MRSA #1
  antibiotic susceptibility/resistance: Resistant
[2]; strain MRSA #2
  antibiotic susceptibility/resistance: Resistant
[2]; strain MRSA #3
  antibiotic susceptibility/resistance: Resistant
[2]; strain MRSA #4
  antibiotic susceptibility/resistance: Resistant
[2]; strain MRSA #5
  antibiotic susceptibility/resistance: Resistant
[2]; strain MRSA #6
  antibiotic susceptibility/resistance: Resistant
[2]; strain MRSA #7
  antibiotic susceptibility/resistance: Resistant
[2]; strain MRSA #8
  antibiotic susceptibility/resistance: Resistant
[2]; strain MRSA #9
  antibiotic susceptibility/resistance: Resistant
[2]; strain MRSA #10
  antibiotic susceptibility/resistance: Resistant
[2]; strain MRSA #11
  antibiotic susceptibility/resistance: Resistant
[2]; strain MRSA #12
  antibiotic susceptibility/resistance: Resistant
[2]; strain MRSA #13
  antibiotic susceptibility/resistance: Resistant
[2]; strain MRSA #14
  antibiotic susceptibility/resistance: Resistant
[2]; strain MRSA #15
  antibiotic susceptibility/resistance: Resistant
[2]; strain MRSA #16
  antibiotic susceptibility/resistance: Resistant
[2]; strain MRSA #17
  antibiotic susceptibility/resistance: Resistant
[2]; strain MRSA #18
  antibiotic susceptibility/resistance: Resistant
[2]; strain MRSA #19
  antibiotic susceptibility/resistance: Resistant
[2]; strain MRSA #20
  antibiotic susceptibility/resistance: Resistant
[2]; strain MRSA #21
  antibiotic susceptibility/resistance: Resistant
[2]; strain MRSA #22
  antibiotic susceptibility/resistance: Resistant
[2]; strain MRSA #23
  antibiotic susceptibility/resistance: Resistant
[2]; strain MRSA #24
  antibiotic susceptibility/resistance: Susceptible
[2]; strain MRSA #25
  antibiotic susceptibility/resistance: Resistant
[2]; strain MRSA #26
  antibiotic susceptibility/resistance: Resistant
[2]; strain MRSA #27
  antibiotic susceptibility/resistance: Resistant
[2]; strain MRSA #28
  antibiotic susceptibility/resistance: Resistant
[2]; strain MRSA #29
  antibiotic susceptibility/resistance: Resistant
[2]; strain MRSA #30
  antibiotic susceptibility/resistance: Resistant

## CN[C@H](CC(C)C)C(=O)N[C@H]1C(=O)N[C@@H](CC(N)=O)C(=O)N[C@H]2C(=O)N[C@H]3C(=O)N[C@H](C(=O)N[C@H](C(=O)O)c4cc(O)cc(O)c4-c4cc3ccc4O)[C@H](O)c3ccc(c(Cl)c3)Oc3cc2cc(c3O[C@@H]2O[C@H](CO)[C@@H](O)[C@H](O)[C@H]2O[C@H]2C[C@](C)(N)[C@H](O)[C@H](C)O2)Oc2ccc(cc2Cl)[C@H]1O [Vancomycin, vancomycin]
[1]; strain MSSA #1
  antibiotic susceptibility/resistance: Susceptible
[1]; strain MSSA #2
  antibiotic susceptibility/resistance: Susceptible
[1]; strain MSSA #3
  antibiotic susceptibility/resistance: Susceptible
[1]; strain MSSA #4
  antibiotic susceptibility/resistance: Susceptible
[1]; strain MSSA #5
  antibiotic susceptibility/resistance: Susceptible
[1]; strain MSSA #6
  antibiotic susceptibility/resistance: Susceptible
[1]; strain MSSA #7
  antibiotic susceptibility/resistance: Susceptible
[1]; strain MSSA #8
  antibiotic susceptibility/resistance: Susceptible
[1]; strain MSSA #9
  antibiotic susceptibility/resistance: Susceptible
[1]; strain MSSA #10
  antibiotic susceptibility/resistance: Susceptible
[1]; strain MSSA #11
  antibiotic susceptibility/resistance: Susceptible
[1]; strain MSSA #12
  antibiotic susceptibility/resistance: Susceptible
[1]; strain MSSA #13
  antibiotic susceptibility/resistance: Susceptible
[1]; strain MSSA #14
  antibiotic susceptibility/resistance: Susceptible
[1]; strain MSSA #15
  antibiotic susceptibility/resistance: Susceptible
[1]; strain MSSA #16
  antibiotic susceptibility/resistance: Susceptible
[1]; strain MSSA #17
  antibiotic susceptibility/resistance: Susceptible
[1]; strain MSSA #18
  antibiotic susceptibility/resistance: Susceptible
[1]; strain MSSA #19
  antibiotic susceptibility/resistance: Susceptible
[1]; strain MSSA #20
  antibiotic susceptibility/resistance: Susceptible
[2]; strain MRSA #1
  antibiotic susceptibility/resistance: Susceptible
[2]; strain MRSA #2
  antibiotic susceptibility/resistance: Susceptible
[2]; strain MRSA #3
  antibiotic susceptibility/resistance: Susceptible
[2]; strain MRSA #4
  antibiotic susceptibility/resistance: Susceptible
[2]; strain MRSA #5
  antibiotic susceptibility/resistance: Susceptible
[2]; strain MRSA #6
  antibiotic susceptibility/resistance: Susceptible
[2]; strain MRSA #7
  antibiotic susceptibility/resistance: Susceptible
[2]; strain MRSA #8
  antibiotic susceptibility/resistance: Susceptible
[2]; strain MRSA #9
  antibiotic susceptibility/resistance: Susceptible
[2]; strain MRSA #10
  antibiotic susceptibility/resistance: Susceptible
[2]; strain MRSA #11
  antibiotic susceptibility/resistance: Susceptible
[2]; strain MRSA #12
  antibiotic susceptibility/resistance: Susceptible
[2]; strain MRSA #13
  antibiotic susceptibility/resistance: Susceptible
[2]; strain MRSA #14
  antibiotic susceptibility/resistance: Susceptible
[2]; strain MRSA #15
  antibiotic susceptibility/resistance: Susceptible
[2]; strain MRSA #16
  antibiotic susceptibility/resistance: Susceptible
[2]; strain MRSA #17
  antibiotic susceptibility/resistance: Susceptible
[2]; strain MRSA #18
  antibiotic susceptibility/resistance: Susceptible
[2]; strain MRSA #19
  antibiotic susceptibility/resistance: Susceptible
[2]; strain MRSA #20
  antibiotic susceptibility/resistance: Resistant
[2]; strain MRSA #21
  antibiotic susceptibility/resistance: Susceptible
[2]; strain MRSA #22
  antibiotic susceptibility/resistance: Susceptible
[2]; strain MRSA #23
  antibiotic susceptibility/resistance: Susceptible
[2]; strain MRSA #24
  antibiotic susceptibility/resistance: Susceptible
[2]; strain MRSA #25
  antibiotic susceptibility/resistance: Susceptible
[2]; strain MRSA #26
  antibiotic susceptibility/resistance: Susceptible
[2]; strain MRSA #27
  antibiotic susceptibility/resistance: Susceptible
[2]; strain MRSA #28
  antibiotic susceptibility/resistance: Susceptible
[2]; strain MRSA #29
  antibiotic susceptibility/resistance: Susceptible
[2]; strain MRSA #30
  antibiotic susceptibility/resistance: Resistant
